Test results as given in patent US20070015232A1, “Mitotic index assay” (DiscoveRx, Inc., priority 2005, published 2007).

Key:
[1] = tested on: CHO-K1+EA-NLS/NRS+GR-PL cells; test: EFC mitotic index assay, CHO-K1+EA-NLS/NRS+GR-PL cells, antibiotic selected pool (DX M19/GR pool); assay type: cell-based; details: 24 hours, 30 min read
Procedure: (§1) In all experiments described, 20,000 cells/well were plated in a 96 well Corning clear bottom white plate in a total volume of 100 μL. The cells were treated for 24 hours with 5 μL of either the appropriate vehicle control or varying concentrations of the six compounds listed above. The next day, 100 μL of Tropix/ABI Gal screen cell lysis buffer/substrate mixture (24:1 ratio of component) was added to the cells/media and the plate was read on the Victor II luminescent plate reader at 30, 60 and 120 minutes after the lysis/substrate addition.
(§2) The initial test of the cell cycle arresting compounds was performed on a double stable cell line having both of the constructs expressing the EA-NLS/NRS and GR-PL. (PL is β-galactosidase enzyme donor fragment and EA is the enzyme acceptor fragment available from DiscoveRx, Fremont, CA.). The parental line, C2C12 is derived from mouse muscle cells. In the experiments in which EA-NLS/NRS and GR-PL are expressed in the C2C12 parental cell line, the constructs were generated by subcloning the human GR sequence into a MFG-based retroviral vector that had been molecularly altered in a lab at Stanford. An MFG vector is described in U.S. Pat. No. 6,544,771. The EA-NLS/NRS fragment was subcloned into a wzl-based retroviral vector again molecularly altered in a lab at Stanford. In the experiments performed using a CHO-K1 parental cell line background the EA-NLS/NRS was subcloned into the Kpn I and Xba I sites of pcDNA3.1 Hygro vector from Invitrogen (catalog #V870-20). The plasmid was introduced into the cells via FuGene6 (Roche) transfection reagent. Cells were selected in the presence of 250 μg/mL of Hygromycin and single cell clones isolated that expressed the EA-NLS/NRS. The human GR gene was cloned by PCR and subcloned into the Xho I and Bam HI sites of the DiscoveRx vector-pCMV-myc-PL (C3). The plasmid was introduced into the selected EA-NLS/NRS expressing clone isolated above by FuGene 6 transfection. Another round of screening in the presence of 300-500 μg/mL of G418 was used to select GR-PL transfected clones. Clonal selection was performed to finally identify the clone that was used in these studies. In the studies using the CHO-K1+cyto-EA and cJUN-PL, the same Invitrogen pcDNA3.1 Hygro vector was used to express EA. In this case, the EA fragment was subcloned into the Kpn I/Not I sites of pcDNA3.1 Hygro. The plasmid DNA was introduced as described above using FuGene6 reagent. Cells were selected in the presence of 250 μg/mL of hygromycin and clonal selection was performed. The c-Jun gene was generated by PCR using an existing template copy of the gene and then subcloned into the Xho I/Bam HI sites of pCMV-PL-myc (C3).
In the next experiment, an antibiotic selected pool population of CHO-K1 cells that express EA-NLS/NRS and GR-PL were tested with the same six set of cell cycle blocking compounds. […] FIGS. 2a and 2b show the immunofluorescence localization of EA and GR-PL in that the blue DAPI nuclear staining can be seen to be concentrated in the nucleus, while the green fluorescein stain on the antibody (from Abcam PLC) to the glucocorticoid receptor is seen in the cytoplasm. […] Again, six tables are presented one for each of the six drugs tested.
This only occurs with compounds that block the cells in mitosis, allowing EA and ProLabel to complement.

[2] = tested on: CHO-K1+cyto-EA cells transfected with cJUN-PL; test: EFC mitotic index assay, CHO-K1+cyto-EA cells transiently transfected with cJUN-PL; assay type: cell-based; details: for Avg luminescence readout / R1 luminescence readout / R3 luminescence readout / Ratio (Avg vs 0 conc): overnight
Procedure: as §2
To further test the concept of sequestering of one β-galactosidase enzyme fragment in the nucleus (in this case PL) while localizing the other component in the cytoplasm (in this case EA) the following experiment was carried out. […] The cyto-EA cells were transiently transfected with cJUN-PL plasmid DNA. Two days after the transfection, the cells were re-plated into a 96 well Corning white clear bottom multiwell plate at 20,000 cells/well. The cells were allowed to adhere overnight and the next day were treated with titrating concentrations of the six different cell cycle blocking compounds. The incubation was carried out overnight. The next day the media was removed from the cells and 100 μL of Tropix/ABI Gal screen cell lysis/substrate reagent was added to the cells.

[3] = tested on: Clone #69 CHO-K1 cells expressing EA-NLS/NRS and GR-PL; test: EFC assay in stable clone #69 (CHO-K1, EA-NLS/NRS and GR-PL) with or without RU486 pre-incubation; assay type: cell-based; details: for Avg luminescence readout / R1 luminescence readout / R3 luminescence readout / Ratio (Avg vs 0 conc): overnight, vehicle pre-incubation
Procedure: In the next experiment, a stable clone (clone #69) expressing both EA-NLS/NRS and GR-PL was isolated in a CHO-K1 parental background. […] 20,000 cells/well were plated in a 96 well white coming multi-well plate and allowed to adhere overnight. The next day, the cells were washed two times with serum free F12 media and 100 μL of serum free F12 media was added to the cells. The cells were then incubated in either vehicle (ethanol-1% final concentration) or 10 μM RU486 for one hour. To the cells, three different concentrations of dexamethasone (300, 100, 30 μM) (an agonist of GR), RU486 (30, 10, 3.33 μM), colchicine (1, 0.3, 0.1 μ/mL) or nocodazole (10, 3.33, 1.11 μg/mL) were added and the incubation went overnight at 37° C. with 5% CO2. The next day, the media was aspirated off and 100 μL of Tropix/ABI Gal screen cell lysis/substrate reagent was added to the cells. The plate was read on the Victor II reader at 30, 60 and 120 minutes.

[4] = tested on: C2C12+EA-NLS/NRS+GR-PL cells; test: EFC mitotic index assay, C2C12+EA-NLS/NRS+GR-PL cells (Stanford GR cells); assay type: cell-based, mouse; details: 24 hours, 30 min read
Procedure: as §1, §2

[5] = High conc (nocodazole 10 μg/mL, colchicine 1 μ/mL, dexamethasone 300 μM, RU486 30 μM)
[6] = Low conc (nocodazole 1.11 μg/mL, colchicine 0.1 μ/mL, dexamethasone 30 μM, RU486 3.33 μM)
[7] = Med conc (nocodazole 3.33 μg/mL, colchicine 0.3 μ/mL, dexamethasone 100 μM, RU486 10 μM)

COc1cc2c(c(OC)c1OC)-c1ccc(OC)c(=O)cc1[C@@H](NC(C)=O)CC2 [Colchicine, colchicine]
Avg luminescence readout ([1]; 0.03 μM): 3412
R1 luminescence readout ([1]; 0.03 μM): 3128
R3 luminescence readout ([1]; 0.03 μM): 3727
Ratio (Avg vs 0 conc) ([1]; 0.03 μM): 1
Avg luminescence readout ([1]; 0.1 μM): 5814
R1 luminescence readout ([1]; 0.1 μM): 6507
R3 luminescence readout ([1]; 0.1 μM): 4886
Ratio (Avg vs 0 conc) ([1]; 0.1 μM): 2
Avg luminescence readout ([1]; 0.3 μM): 7251
R1 luminescence readout ([1]; 0.3 μM): 7078
R3 luminescence readout ([1]; 0.3 μM): 7341
Ratio (Avg vs 0 conc) ([1]; 0.3 μM): 3
Avg luminescence readout ([1]; 1 μM): 11843
R1 luminescence readout ([1]; 1 μM): 10671
R3 luminescence readout ([1]; 1 μM): 13178
Ratio (Avg vs 0 conc) ([1]; 1 μM): 4
Avg luminescence readout ([2]; 0.3 μg/mL): 8548
R1 luminescence readout ([2]; 0.3 μg/mL): 7491
R3 luminescence readout ([2]; 0.3 μg/mL): 9730
Ratio (Avg vs 0 conc) ([2]; 0.3 μg/mL): 1.2
Avg luminescence readout ([2]; 1.0 μg/mL): 10762
R1 luminescence readout ([2]; 1.0 μg/mL): 11290
R3 luminescence readout ([2]; 1.0 μg/mL): 9929
Ratio (Avg vs 0 conc) ([2]; 1.0 μg/mL): 1.5
Avg luminescence readout ([2]; 3.0 μg/mL): 13255
R1 luminescence readout ([2]; 3.0 μg/mL): 12822
R3 luminescence readout ([2]; 3.0 μg/mL): 13005
Ratio (Avg vs 0 conc) ([2]; 3.0 μg/mL): 1.9
Avg luminescence readout ([2]; 10.0 μg/mL): 14719
R1 luminescence readout ([2]; 10.0 μg/mL): 13772
R3 luminescence readout ([2]; 10.0 μg/mL): 14302
Ratio (Avg vs 0 conc) ([2]; 10.0 μg/mL): 2.1
increase in EFC activity ([2]; overnight incubation): ~2.1 fold
effect of incubation with RU486 on the EFC response (in words) ([3]; 10 μM RU486 pre-incubation for one hour): not blocked by the incubation with RU486
Avg luminescence readout [3, 5]: 1623
R1 luminescence readout [3, 5]: 1850
R3 luminescence readout [3, 5]: 1323
Ratio (Avg vs 0 conc) [3, 5]: 4
Avg luminescence readout [3, 6]: 1136
R1 luminescence readout [3, 6]: 1274
R3 luminescence readout [3, 6]: 1007
Ratio (Avg vs 0 conc) [3, 6]: 3
Avg luminescence readout [3, 7]: 1241
R1 luminescence readout [3, 7]: 1345
R3 luminescence readout [3, 7]: 1073
Ratio (Avg vs 0 conc) [3, 7]: 3
Avg luminescence readout ([4]; 0.03 μM): 11782
R1 luminescence readout ([4]; 0.03 μM): 10442
R3 luminescence readout ([4]; 0.03 μM): 12456
Ratio (Avg vs 0 conc) ([4]; 0.03 μM): 1
Avg luminescence readout ([4]; 0.1 μM): 9170
R1 luminescence readout ([4]; 0.1 μM): 6763
R3 luminescence readout ([4]; 0.1 μM): 10724
Ratio (Avg vs 0 conc) ([4]; 0.1 μM): 1
Avg luminescence readout ([4]; 0.3 μM): 11243
R1 luminescence readout ([4]; 0.3 μM): 11132
R3 luminescence readout ([4]; 0.3 μM): 12160
Ratio (Avg vs 0 conc) ([4]; 0.3 μM): 1
Avg luminescence readout ([4]; 1 μM): 12083
R1 luminescence readout ([4]; 1 μM): 11891
R3 luminescence readout ([4]; 1 μM): 11866
Ratio (Avg vs 0 conc) ([4]; 1 μM): 1
